Test results taken from patent US9371521B2, “Substituted pyrazinedithiol reducing agents” (Wisconsin Alumni Research Foundation, priority 2014, dated 2016).
Values after ≈ are worked out from the molar mass of the structure shown. Values joined by “and” are separate entries in the source; they are usually repeats but may differ in a detail not shown here. Identical values can stand only once. Like-named read-outs stand apart in the source and are kept apart here.

Tests used:
[1] = Reduction potential from equilibrium reaction with oxidized DTT (HPLC, Nernst equation); format: physicochemical; details: for Disulfide E°′ (reduction potential of oxidized form) / Keq of equilibrium reaction with DTTox: 50 mM potassium phosphate buffer, pH 7.0, EDTA 2 mM, 24 h; for Disulfide E°′ (reduction potential of oxidized form): assuming −0.327 V for DTT, this work
[2] = Determination of thiol pKa values (pH titration monitored by UV absorbance at 238 nm); format: physicochemical
Experimental: Thiol pKa values were determined using a Varian Cary 60 UV-Vis spectrophotometer. Kinetic studies on proteins were carried out using a Varian Cary 400 Bio UV-Vis spectrometer with a Cary temperature controller at the Biophysics Instrumentation Facility at Madison (BIF). All NMR spectra were acquired at ambient temperature with a Bruker DMX-400 Avance spectrometer and a Bruker Avance III 500ii with cyroprobe spectrometer at the National Magnetic Resonance Facility at Madison (NMRFAM), and were referenced to TMS or residual protic solvent.
The thiol pKa values are determined by following a procedure reported previously that exploits the elevated absorbance of the deprotonated thiolate at 238 nm.
For BMMP determination, in eq 1, CT is the total thiol concentration, εSH^SH is the extinction coefficient of the doubly protonated form of BMMP, εSH^S- is the extinction coefficient of the singly protonated form of BMMP, and εS-^S- is the extinction coefficient of the doubly deprotonated form of BMMP.
For comparison, the thiol pKa values for DMH were determined in a similar fashion.

[3] = molecular target: T1, creatine kinase-Cys283-S-S-G (Oryctolagus cuniculus, UniProt P00563); details: literature [23]; cited from earlier work
T1 construct: creatine kinase (lyophilized powder from rabbit muscle); purchased Sigma-Aldrich (St. Louis, Mo.); host or cells: rabbit muscle (natural source)
T1 sequence (P00563 whole entry): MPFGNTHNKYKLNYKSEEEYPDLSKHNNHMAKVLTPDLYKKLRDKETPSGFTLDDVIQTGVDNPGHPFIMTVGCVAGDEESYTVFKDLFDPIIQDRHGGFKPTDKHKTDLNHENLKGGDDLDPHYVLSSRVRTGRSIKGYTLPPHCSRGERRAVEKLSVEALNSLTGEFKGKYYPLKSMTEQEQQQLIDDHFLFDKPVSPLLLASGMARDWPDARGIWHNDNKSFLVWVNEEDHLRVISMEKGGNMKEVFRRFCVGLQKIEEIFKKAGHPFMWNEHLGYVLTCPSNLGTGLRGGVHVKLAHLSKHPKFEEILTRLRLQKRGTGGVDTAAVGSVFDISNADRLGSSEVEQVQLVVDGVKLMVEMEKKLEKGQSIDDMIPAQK

[4] = molecular target: T1, creatine kinase-Cys283-S-S-G; assay: Reactivation of creatine kinase (reduction of mixed disulfide with glutathione); format: biochemical, rabbit; details: for kobs for reduction of creatine kinase-Cys283-S-S-G: 0.10 M imidazole-HCl buffer, pH 7.0, EDTA 2 mM
Experimental: (§1) Commercial reagents were used without further purification. Dithiothreitol (DTT) was from Research Products International (Mt. Prospect, Ill.). […].
[21, 23] Enzymatic activity (%) at particular time points was calculated by dividing the number of active units of enzyme by the possible number of units in solution, and was plotted in FIG. 2B. Values of kobs (Table 2) were determined using eq.

[5] = molecular target: T2, papain-Cys25-S—S—CH3 (Carica papaya, UniProt P00784); assay: Reactivation of papain (reduction of active-site mixed disulfide); format: biochemical; details: for kobs for reduction of papain-Cys25-S-S-CH3: 0.10 M imidazole-HCl buffer, pH 7.0, EDTA 2 mM
T2 construct: Papain (lyophilized powder from papaya latex); purchased Sigma-Aldrich (St. Louis, Mo.); host or cells: papaya latex (natural source)
T2 sequence (P00784 134-345): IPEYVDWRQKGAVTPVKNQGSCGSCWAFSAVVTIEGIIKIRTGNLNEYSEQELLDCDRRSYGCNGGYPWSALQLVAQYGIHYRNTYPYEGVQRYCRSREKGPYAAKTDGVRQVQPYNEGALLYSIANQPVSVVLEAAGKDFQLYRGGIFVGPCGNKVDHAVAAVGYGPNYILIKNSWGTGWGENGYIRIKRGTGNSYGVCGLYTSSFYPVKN
Experimental: as §1
Papain was inactivated by forming a mixed disulfide upon treatment of its active-site cysteine (Cys25) with S-methyl methanethiosulfonate following a procedure reported previously. A 1.25 mL solution of papain-Cys25-S—S—CH3 (4.4×10^−6 M) in a degassed 0.10 M imidazole-HCl buffer, pH 7.0, containing EDTA (2 mM) was placed in a 1.5-mL LoBind Eppendorf tube. At time t=0, 10 μL of a 1 mM stock solution of BMMP was added, and a timer was started. […] A unit of protein is defined as the amount of enzyme required to produce 4-nitroaniline at a rate of 1 μmol/min. The units of active papain at each time point were calculated by using an extinction coefficient for 4-nitroaniline of ε=8,800 M^−1cm^−1 at 410 nm. […] Y=enzymatic activity (%) at any time point was determined by dividing the number of active units of enzyme by the possible number of units in the solution, and plotted in FIG. 2A. To determine the value of the second-order rate constant (kobs) for the reducing agents, the second order rate equation (eq 4) was transformed into eq 5, which was fitted to the data with the program Prism 5.0.

[6] = Reduction kinetics on oxidized βME; format: physicochemical; details: for kobs for reduction of βMEox: 5 mM each
[7] = literature value; cited from earlier work
[8] = cited from earlier work
[9] = Determination of BMMP solubility in buffered water (1H NMR); format: physicochemical; details: aqueous buffer, thermodynamic from solid; 50 mM sodium phosphate buffer, pH 7.0
Experimental: A 20 mM stock solution of 2-butyne-1,4-diol (an ^1H NMR standard) was prepared in 50 mM sodium phosphate buffer, pH 7.0. BMMP was added to a solution containing 1 mL of this buffer and 0.1 mL of D2O until the solution was saturated completely. The mixture was sonicated to ensure complete dissolution and filtered into an NMR tube, and its spectrum was acquired. The solubility of BMMP was determined to be (64±14) mM by integration of the ^1H NMR peak areas of the aryl CH and methylene CH2SH protons for BMMP and the CH2OH peak for 2-butyne-1,4-diol.

[10] = literature value [37]; cited from earlier work
[11] = Thiol pKa (second value, in parentheses)
[12] = pH 5.0, 50 mM sodium acetate buffer
[13] = pH 7.0, 50 mM potassium phosphate buffer

Question: What does the source list for SCc1nccnc1CS [drawing 7]?
Answer: Disulfide E°′ (reduction potential of oxidized form) [1]: −0.301 ± 0.003 V^c; pKa ([2]; Thiol pKa (first, lower value)): 7.6 ± 0.1; pKa [2, 11]: 9

Question: Which “Disulfide E°′ (reduction potential of oxidized form)” value [1] does the source give for CN(C(=O)CS)N(C)C(=O)CS [drawing 5] here?
Answer: Its value is −0.262 ± 0.004 V^c.

Question: And the “Thiol pKa (first, lower value)” value [2]?
Answer: The value was 8.0 ± 0.2.

Question: What about the “Thiol pKa (second value, in parentheses)” value [2] of the same compound?
Answer: The value was 9.1 ± 0.1.

Question: For N[C@H](CS)CCS [DTBA, dithiobutylamine, reference compound], which “Rate of reduction of creatine kinase mixed disulfide compared with DTT” value [3] is on record?
Answer: The value was “comparable to that of DTT”.

Question: What about the “kobs for reduction of creatine kinase-Cys283-S-S-G” value [4] of the same compound?
Answer: Its value is 70 ± 2 M⁻¹ s⁻¹.

Question: And the “kobs for reduction of papain-Cys25-S-S-CH3” value [5]?
Answer: Its value is 950 ± 51 M⁻¹ s⁻¹.

Question: What about the “kobs for reduction of βMEox” value [6, 12] of the same compound?
Answer: Its value is 0.0051 ± 0.0004 M⁻¹ s⁻¹.

Question: And the “kobs for reduction of βMEox” value [6, 13]?
Answer: The value was 0.32 ± 0.02 M⁻¹ s⁻¹.

Question: Which “Disulfide E°′ (reduction potential of oxidized form)” value [7] does the source give for N[C@H](CS)CCS [drawing 6] here?
Answer: The value was −0.317 V^d.

Question: For O[C@H](CS)[C@H](O)CS [DTT, dithiothreitol, reference compound], which “kobs for reduction of creatine kinase-Cys283-S-S-G” value [4] is on record?
Answer: The value was 82 ± 3 M⁻¹ s⁻¹.

Question: And the “kobs for reduction of papain-Cys25-S-S-CH3” value [5]?
Answer: Its value is 87 ± 3 M⁻¹ s⁻¹.

Question: And the “Fraction in the reactive thiolate form” value ([8]; neutral pH)?
Answer: Its value is “less than 1%”.

Question: And the “Disulfide E°′ (reduction potential of oxidized form)” value [7]?
Answer: Its value is −0.327 V.

Question: And the “kobs for reduction of βMEox” value [6, 12]?
Answer: Its value is 0.0013 ± 0.0001 M⁻¹ s⁻¹.

Question: What about the “kobs for reduction of βMEox” value [6, 13] of the same compound?
Answer: Its value is 0.090 ± 0.005 M⁻¹ s⁻¹.

Question: With OC(CS)[C@H](O)CS (mixture of isomers) as the compound, how does the “Disulfide E°′ (reduction potential of oxidized form)” value [7] read?
Answer: Its value is −0.327 V^b.

Question: Which results are given for SCc1nccnc1CS [BMMP, 2,3-bis(mercaptomethyl)pyrazine]?
Answer: solubility [9]: 64 ± 14 mM (≈ 11 mg/mL); Keq of equilibrium reaction with DTTox [1]: 0.137±0.036; Disulfide E°′ (reduction potential of oxidized form) [1]: −0.301±0.003 V; Free energy by which equilibrium favors reduced BMMP and oxidized DTT ([1]; reduced BMMP + oxidized DTT vs oxidized BMMP + reduced DTT): -1.2 kcal/mol; kobs for reduction of creatine kinase-Cys283-S-S-G [4]: 476 ± 34 M⁻¹ s⁻¹; kobs^BMMP/kobs^DTBA, reduction of creatine kinase Cys283-S—S-glutathione ([4]; pH 7.0): 6.8 and 7; kobs^BMMP/kobs^DTT, reduction of creatine kinase Cys283-S—S-glutathione ([4]; pH 7.0): 5.8 and 6; kobs for reduction of papain-Cys25-S-S-CH3 [5]: 1139 ± 62 M⁻¹ s⁻¹; kobs^BMMP/kobs^DTT, reduction of papain Cys25-S—S—CH3 ([5]; pH 7.0): 13.1 and 13; Observed rate of reduction of βMEox at pH 5.0 compared with DTT at pH 7.0 ([6]; BMMP pH 5.0 vs DTT pH 7.0): comparable; kobs^BMMP/kobs^DTBA, reduction of βMEox ([6]; pH 5.0): 3.6 and 4; kobs^BMMP/kobs^DTT, reduction of βMEox ([6]; pH 5.0): 14.1 and 14; kobs for reduction of βMEox [6, 12]: 0.0183 ± 0.0007 M⁻¹ s⁻¹; kobs^BMMP/kobs^DMH, reduction of βMEox ([6]; pH 7.0): 1.8; kobs^BMMP/kobs^DTBA, reduction of βMEox ([6]; pH 7.0): 3.2 and 3; kobs^BMMP/kobs^DTT, reduction of βMEox ([6]; pH 7.0): 11.4 and 11; kobs for reduction of βMEox [6, 13]: 1.02 ± 0.07 M⁻¹ s⁻¹

Question: Which “Keq of equilibrium reaction with DTTox” value [1] does the source give for CN(C(=O)CS)N(C)C(=O)CS [DMH, N,N′-dimethyl-N,N′ bis(mercaptoacetyl)hydrazine, reference compound] here?
Answer: Its value is 0.0065±0.0020.

Question: What about the “Disulfide E°′ (reduction potential of oxidized form)” value [1] of the same compound?
Answer: The value was −0.262±0.004 V and −0.262±0.003 V.

Question: What about the pKa ([2]; Thiol pKa (first, lower value)) of the same compound?
Answer: Its pKa is 8 ± 0.2.

Question: What about the pKa [2, 11] of the same compound?
Answer: The pKa was 9.1 ± 0.1.

Question: What about the “Thiol pKa (first, lower value)” value ([8]; literature value) of the same compound?
Answer: The value was 7.6.

Question: And the “Thiol pKa (second value, in parentheses)” value ([8]; literature value)?
Answer: The value was 8.9.

Question: And the “Rate of reduction of βMEox compared with other dithiols” value ([6]; pH 7.0)?
Answer: Its value is “faster than did DTT or DTBA but slower than did BMMP”.

Question: And the “kobs for reduction of βMEox” value [6, 13]?
Answer: Its value is 0.56 ± 0.04 M⁻¹ s⁻¹.

Question: With Cc1cnc(C)cn1 [2,5-dimethylpyrazine] as the compound, how does the “pKa of the conjugate acid” value [10] read?
Answer: The value was 2.1.
